Data: article PMC3183289 (Bioorganic & medicinal chemistry, 2011)
pIC50: −log10 of the molar value. Where two headings read alike, the source gives them in different places.

Columns and labels:
recombinant mPGES-1 = target: T1, recombinant mPGES-1 (Homo sapiens, UniProt O14684); test: in vitro mPGES-1 enzyme activity assay; format: biochemical; conditions: −RTln(Kd) ≈ −RTln(IC50), from measured IC50
T1 sequence (O14684 1-152): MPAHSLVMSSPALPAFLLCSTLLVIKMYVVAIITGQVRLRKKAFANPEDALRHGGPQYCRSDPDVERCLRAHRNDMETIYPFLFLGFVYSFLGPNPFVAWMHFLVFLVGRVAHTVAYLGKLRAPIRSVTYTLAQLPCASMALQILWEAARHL

mPGES-1 = conditions: cited from earlier work

With `COCCN(c1ccc(/C=C2\S/C(=N\c3ccccc3)N(C(C)C(=O)O)C2=O)cc1)c1ccccc1OC` (stereo not drawn) [Compound 3] as the molecule, how does the “ΔGbind^Exp” value (recombinant mPGES-1) read?
The value was -7.44 kcal/mol.

Which IC50 (mPGES-1; probably by competing with glutathione) does the source give for `CCCCC/C=C\C\C=C/C=C/C=C/[C@@H](SC[C@H](NC(=O)CC[C@H](N)C(=O)O)C(=O)NCC(=O)O)[C@@H](O)CCCC(=O)O` [Leukotriene C4] here?
Its IC50 is “micromolar”.

With `CSc1ccc(/C=C2/C(C)=C(CC(=O)O)c3cc(F)ccc32)cc1` as the molecule, how does the pIC50 (mPGES-1) read?
The pIC50 was 4.10.
